Experimental data as given in patent US6451797B1, “Muscarinic antagonists” (priority 1998, dated 2002).
Structures can show the parent of a compound that is named as a salt.

Row | melting point | SMILES
1 | 172 to 174 °C | C[C@@H]1CN(C2CCN(C(=O)c3cccc4c(F)cc(F)cc34)CC2)CCN1[C@@H](C)c1ccc(S(=O)(=O)c2ccc3c(c2)OCO3)nc1
2 | 184 to 186 °C | C[C@@H]1CN(C2CCN(C(=O)c3cccc(Cl)c3N)CC2)CCN1[C@@H](C)c1ccc(S(=O)(=O)c2ccc3c(c2)OCO3)nc1
3 | 187 to 188 °C | C[C@@H]1CN(C2CCN(C(=O)c3ccccc3N)CC2)CCN1[C@@H](C)c1ccc(S(=O)(=O)c2ccc3c(c2)OCO3)nc1
4 | 174 °C | C[C@@H]1CN(C2CCN(C(=O)c3cccc4cccnc34)CC2)CCN1[C@@H](C)c1ccc(S(=O)(=O)c2ccc3c(c2)OCO3)nc1
5 | 165 °C | Cc1cccc(C)c1C(=O)N1CCC(N2CCN([C@@H](C)c3ccc(S(=O)(=O)c4ccc5c(c4)OCO5)nc3)[C@H](C)C2)CC1
6 | 144 to 148 °C (dec.) | CNc1ccccc1C(=O)N1CCC(N2CCN(Cc3ccc(S(=O)(=O)c4cccc(C)c4)nc3)[C@H](C)C2)CC1 (as salt: HCl)
